Measured values from US20120129884A1, “PHOTOCHEMOTHERAPEUTIC HETEROCYCLIC AGENTS HAVING ANTIPROLIFERATIVE AND ANTINEOPLASTIC ACTIVITY” (UNIVERSITA DEGLI STUDI DI PADOVA, priority 2009, published 2012).

Legend:
Test in all cases: Phototoxicity after UV-A irradiation, MTT test
Format in all cases: cell-based, human
Details in all cases: mean ± SEM
[1] = system: chronic myeloid leukaemia (K-562)
Description: (§1) The evaluation of phototoxic activity was carried out in some human tumour cell lines: T-cell leukaemia (Jurkat), chronic myeloid leukaemia (K-562), colon adenocarcinoma (LoVo) and breast adenocarcinoma (MCF-7). Cellular survival experiments were carried out without irradiation to verify an eventual toxicity of photosensitizer in the dark, and then after two times of irradiation (10 and 15 min of UV-A, which correspond to 2.5 and 3.75 J/cm^2, respectively), using lamps which emit mainly at 365 nm. Cell survival was checked after 72 h of compound incubation or after 72 h from UVA irradiation by Mosmann's MTT reduction test (3-[4,5-dimethyltiazol-2yl] 2,5-diphenyl tetrazolium bromide), (T. Mossman, Rapid colorimetric assay for cellular growth and survival: application to proliferation and cytotoxicity assays, J. Immunol. Meths. 1983, 65, 55-63). […] In Table 2, there are GI50 values, that is the compound concentration required for 50% cell survival, for each cell line and for every time of irradiation.

[2] = system: breast adenocarcinoma (MCF-7)
Description: as §1

[3] = system: colon adenocarcinoma (LoVo)
Description: as §1

[4] = system: T-cell leukaemia (Jurkat)
Description: as §1

[5] = Homo sapiens, K562, light or radiation study, 72 h, K-562, UV-A 2.5 J/cm^2, 72 h after irradiation
[6] = Homo sapiens, K562, light or radiation study, 72 h, K-562, UV-A 3.75 J/cm^2, 72 h after irradiation
[7] = Homo sapiens, MCF7, light or radiation study, 72 h, MCF-7, UV-A 2.5 J/cm^2, 72 h after irradiation
[8] = Homo sapiens, MCF7, light or radiation study, 72 h, MCF-7, UV-A 3.75 J/cm^2, 72 h after irradiation
[9] = Homo sapiens, light or radiation study, 72 h, UV-A 2.5 J/cm^2, 72 h after irradiation
[10] = Homo sapiens, light or radiation study, 72 h, UV-A 3.75 J/cm^2, 72 h after irradiation
[11] = UV-A 2.5 J/cm^2, 72 h after irradiation
[12] = UV-A 3.75 J/cm^2, 72 h after irradiation

| SMILES | GI50 [1, 5] | GI50 [1, 6] | GI50 [2, 7] | GI50 [2, 8] | GI50 [3, 9] | GI50 [3, 10] | GI50 [4, 9] | GI50 [4, 10] | GI50 ([1]; K-562, UV-A 2.5 J/cm^2, 72 h after irradiation) | GI50 ([1]; K-562, UV-A 3.75 J/cm^2, 72 h after irradiation) | GI50 ([2]; MCF-7, UV-A 2.5 J/cm^2, 72 h after irradiation) | GI50 ([2]; MCF-7, UV-A 3.75 J/cm^2, 72 h after irradiation) | GI50 [3, 11] | GI50 [3, 12] | GI50 [4, 11] | GI50 [4, 12] |
| --- | --- | --- | --- | --- | --- | --- | --- | --- | --- | --- | --- | --- | --- | --- | --- | --- |
| O=c1ccc2ccc3occc3c2o1 [Ang, angelicin, reference compound] | 1.2 ± 0.1 µM | 1 ± 0.1 µM | 4.4 ± 0.5 µM | 1.5 ± 0.2 µM | 3.6 ± 0.4 µM | 1.5 ± 0.3 µM | 1 ± 0.2 µM | 0.9 ± 0.1 µM | – | – | – | – | – | – | – | – |
| O=c1[nH]c2c(cc1S(=O)(=O)c1ccccc1)CCc1ccn(S(=O)(=O)c3ccccc3)c1-2 [Compound 9a, 1,7-bis(Phenylsulfonyl)-1,4,5,9-tetrahydro-8H-pyrrolo[3,2-h]quinolin-8-one] | > 20 µM | > 20 µM | > 20 µM | > 20 µM | > 20 µM | > 20 µM | > 20 µM | > 20 µM | – | – | – | – | – | – | – | – |
| O=c1[nH]c2c(cc1S(=O)(=O)c1ccccc1)CCc1cc[nH]c1-2 [Compound 9b, 7-(Phenylsulfonyl)-1,4,5,9-tetrahydro-8H-pyrrolo[3,2-h]quinolin-8-one] | > 20 µM | > 20 µM | > 20 µM | > 20 µM | > 20 µM | > 20 µM | > 20 µM | > 20 µM | – | – | – | – | – | – | – | – |
| N#Cc1cc2c([nH]c1=O)-c1c(ccn1S(=O)(=O)c1ccccc1)CC2 [Compound 9c, 1-(Phenylsulfonyl)-1,4,5,9-tetrahydro-8H-pyrrolo[3,2-h]quinolin-7-carbonitrile-8-one] | – | – | – | – | – | – | – | – | > 20 µM | > 20 µM | > 20 µM | > 20 µM | > 20 µM | > 20 µM | > 20 µM | > 20 µM |
| Cn1ccc2c1-c1[nH]c(=O)c(S(=O)(=O)c3ccccc3)cc1CC2 [Compound 9d, 1-Methyl-7-(phenylsulfonyl)-1,4,5,9-tetrahydro-8H-pyrrolo[3,2-h]quinolin-8-one] | > 20 µM | > 20 µM | > 20 µM | > 20 µM | > 20 µM | > 20 µM | > 20 µM | > 20 µM | – | – | – | – | – | – | – | – |
| O=c1[nH]c2c(cc1S(=O)(=O)c1ccccc1)CCc1ccn(Cc3ccccc3)c1-2 [Compound 9e, 1-Benzyl-7-(phenylsulfonyl)-1,4,5,9-tetrahydro-8H-pyrrolo[3,2-h]quinolin-8-one] | 4.8 ± 0.5 µM | 3.3 ± 0.5 µM | 4 ± 0.6 µM | 1.7 ± 0.7 µM | 2.6 ± 0.2 µM | 2.2 ± 0.2 µM | 1.3 ± 0.2 µM | 1.1 ± 0.1 µM | – | – | – | – | – | – | – | – |
| O=c1[nH]c2c(cc1S(=O)(=O)c1ccccc1)CCc1ccn(-c3ccccc3)c1-2 [Compound 9f, 1-Phenyl-7-(phenylsulfonyl)-1,4,5,9-tetrahydro-8H-pyrrolo[3,2-h]quinolin-8-one] | > 20 µM | > 20 µM | > 20 µM | > 20 µM | > 20 µM | > 20 µM | > 20 µM | > 20 µM | – | – | – | – | – | – | – | – |
